Reference: patent US20170314056A1, “METHOD OF USING NEAR INFRARED FLUORESCENT DYES FOR IMAGING AND TARGETING CANCERS” (priority 2010, published 2017)
Entries after “also recorded” stand apart in the source; their conditions may differ.

Tests used:
[1] = test system: organic anion transporting peptides (OATPs); test: Blockade of dye uptake into ARCaPM cells by BSP; assay type: cell-based, human; settings: 250 μM BSP
Protocol: ARCaPM Cells were plated on live-cell imaging chambers from World Precision Instrument (Sarasota, Fla.) overnight. Cells were treated with 20 μM IR-780 and 250 μM BSP at the same time and cells were imaged using a Perkin-Elmer Ultraview ERS spinning disc confocal microscope.
To determine if the cyanine dye uptake and accumulation in cancer cells was dependent upon OATPs, cells were preincubated with 250 μM bromosulfophthalein (BSP), a competitive inhibitor of organic anion transporting peptides (OATPs) (25), for 5 minutes prior to incubating the cells with cyanine dyes. The uptake and accumulation of cyanine dyes in the presence and absence of BSP were conducted in the stage warmer incubator for a period of 35 minutes. The levels of cyanine dye taken up and accumulated in normal prostate (P69) and prostate cancer (ARCaPM) cells were determined and compared on a real-time basis.

[2] = test system: MIA PaCa-2 human pancreatic cancer cells; test: Structural requirement screen for cancer cell uptake and retention; assay type: cell-based; settings: cultured MIA PaCa-2 cells
Protocol: FIG. 45 depicts structural requirement of heptamethine cyanine dyes for cancer cell uptake and retention in accordance with various embodiments of the present invention. A series of heptamethine cyanine dyes and their derivatives were screened in cultured MIA PaCa-2 human pancreatic cancer cells with parental MHI-148 served as a positive control.
Cells (1×10^4/well) were seeded on vitronectin-coated four-well chamber slides (Nalgen Nunc, Naperville, Ill.) and incubated with T-medium containing 5% FBS for 24 h. After the cells had attached to the chamber slides, the cells were washed with PBS (Phosphate Buffered Saline) and exposed to the cyanine dye at a concentration of 20 μM in T-medium. The slides were incubated at 37° C. for 30 min, washed twice with PBS to remove excess dyes, and cells were fixed with 10% formaldehyde at 4° C. The slides were then washed twice with PBS and covered with glass coverslips with an aqueous mounting medium (Sigma-Aldrich, St. Louis, Mo.). Images were recorded by confocal laser microscopy (Zeiss LSM 510 META, Germany) using a 633 nm excitation laser and 670-810 nm long pass filter, or a fluorescence microscope (Olympus 1×71; Olympus, Melville, N.Y.) equipped with a 75 W Xenon lamp and an Indo-Cyanine Green filter cube (excitation 750-800 nm; emission 820-860 nm) (Chroma, Rockingham, Vt.).

[3] = test system: human renal cancer SN12C at subcutaneous sites; test: Structural requirement of uptake and retention by tumor tissues in mice; assay type: in vivo; settings: i.p. 10 nmol per mouse, 24 hrs
Protocol: FIG. 46 depicts structural requirement of the uptake and retention of heptamethine cyanine dyes by tumor tissues in mice in accordance with various embodiments of the present invention. Mice bearing human renal cancer SN12C at subcutaneous sites were injected i.p. with MHI-148, IR-1, IR-2, IR-3 and IR-4 heptamethine cyanine dyes at a dose of 10 nmol per mouse. Whole-body optical imaging was taken at 24 hrs using a Kodak Imaging System.
During imaging, mice were maintained in an anesthetized state.

[4] = test system: cultured human cancer cell lines in vitro and their xenograft tumors in vivo; test: Classification of heptamethine cyanine dyes as active or inactive; assay type: cell-based; design: key: Active: Activity of the dyes denotes specific uptake by cultured human cancer cell lines in vitro and their xenograft tumors in vivo, setermined by NIR fluorescence imaging.; Inactive: These heptamethine cyanine dyes were not accumulated in tumor cells in vitro and xenograft tumors in vivo; settings: specific uptake in vitro and in xenograft tumors in vivo, NIR fluorescence imaging
Text: A comparative analysis also uncovered several common structural features of heptamethine cyanine dyes accounting for their preferential uptake and retention by cancer cells. […] A rigid cyclohexenyl ring in the heptamethine chain with a central chlorine atom maintains photostability, increases quantum yield, decreases photobleaching, and reduces dye aggregation in solution (1).

[5] = mouse, in vivo
Protocol: In control mice, the same volume of PBS was injected. The body weight and lethality of these mice were closely followed for 28 days.

| Structure (SMILES) | effect on uptake of IR-780 by ARCaPM cells ([1]; 20 μM IR-780) | effect on uptake of IR-783 by ARCaPM cells ([1]; 20 μM IR-783) | uptake and retention by cancer cell line compared with MHI-148 [2] | tumor fluorescence signal in whole-body optical imaging [3] | Active and inactive heptamethine cyanine dyes [4] | toxicity as evidenced by gains of body weight [5] |
| --- | --- | --- | --- | --- | --- | --- |
| O=C1OC(c2ccc(O)c(S(=O)(=O)O)c2)(c2ccc(O)c(S(=O)(=O)O)c2)c2c(Br)c(Br)c(Br)c(Br)c21 [BSP, bromosulfophthalein] | complete blockade; also recorded: significantly inhibited | abolished; also recorded: abrogated |  |  |  |  |
| CC1(C)/C(=C\C=C2/CCCC(/C=C/C3N(CCCN)c4ccccc4C3(C)C)=C2Cl)N(CCCN)c2ccccc21 (stereo not drawn) [IR-3] |  |  | devoid of any uptake and retention | background fluorescence signals | Inactive dyes^b |  |
| CC(=O)OCCCN1/C(=C/C=C2\CCCC(/C=C/C3N(CCCOC(C)=O)c4ccccc4C3(C)C)=C2Cl)C(C)(C)c2ccccc21 (stereo not drawn) [IR-2] |  |  | devoid of any uptake and retention | background fluorescence signals | Inactive dyes^b |  |
| CC1(C)/C(=C\C=C2/CCCC(/C=C/C3N(CCCO)c4ccccc4C3(C)C)=C2Cl)N(CCCO)c2ccccc21 (stereo not drawn) [IR-1] |  |  | devoid of any uptake and retention | background fluorescence signals | Inactive dyes^b |  |
| CC1(C)C(/C=C/C=C/C=C/C=C2\N(CCCCS(=O)(=O)O)c3ccc4ccccc4c3C2(C)C)=[N+](CCCCS(=O)(=O)[O-])c2ccc3ccccc3c21 [ICG, indocyanine green, reference compound] |  |  |  |  |  | no toxicity was detected |
